Reference: publication PMC11869560, “Anticancer and cancer preventive activities of shogaol and curcumin from Zingiberaceae family plants in KG-1a leukemic stem cells” (BMC Complementary Medicine and Therapies, 2025)
Converted amounts (≈) assume the structure as drawn. Like-named read-outs stand apart in the source and are kept apart here.

What was measured:
KG-1a cells [1] = assay: MTT cytotoxicity assay in KG-1a cells; type: cell-based, human; conditions: for IC50 / IC20: Homo sapiens; for Selectivity index (SI): IC50 for normal cells (PBMCs) / IC50 for cancer cells (KG-1a); for IC20: incubation for 48 h, read-out: IC20 KG-1a (inhibitory concentration at 20% growth)
Experimental: (§1) MTT (3-(4,5-dimethylthiazol-2-yl)-2,5-diphenyltetrazolium bromide) assay was used to investigate the cytotoxicity of the test samples. KG-1a (1.5 × 10^4 cells/well), K562 (1.0 × 10^4 cells/well), PBMCs (1.0 × 10^5 cells/well), A549 (5.0 × 10^3 cells/well), MCF-7 (5.0 × 10^3 cells/well), and HeLa (5.0 × 10^3 cells/well) were seeded into a 96-well plate and incubated overnight at 37 °C with 5% CO2. […] After that, 5 mg/mL of MTT dye solution (Sigma-Aldrich, MA, USA) was added and incubated for 4 h. The produced formazan crystals were dissolved in 200 µL of DMSO (Sigma-Aldrich, MA, USA); then, the optical density (OD) was measured using an ELISA plate reader (Metertech, Taipei, Taiwan) at 578 nm with a reference wavelength of 630 nm. The percentage of surviving cells was calculated from the absorbance values of the test and control wells using the following Equation. 1 [drawing 1]
(§2) where ODsample is a mean absorbance in test well and ODvehicle control is a mean absorbance in VC well. The average percentage of surviving cells at each concentration obtained from triplicate experiments was plotted as a dose-response curve. Inhibitory concentration values at 50% growth (IC50 value) were defined as the lowest concentration of the test sample that inhibited cell growth by 50% compared to the untreated control.
(§3) To calculate IC50 values, a dose-response curve was fitted using non-linear regression analysis, as described in the GraphPad Prism guidelines (https://www.graphpad.com/support/faq/how-to-determine-an-icsub50sub/). The IC50 value was obtained by determining the point at which the curve intersected 50% growth inhibition. Non-linear regression graphs of the dose-response curve for each compound are provided in the supplementary data file (Figs. S1–S8).
where IC50 N is IC50 for normal cells and IC50 C is IC50 for cancer cells which were treated with the same compounds in both cells.

PBMCs = assay: MTT cytotoxicity assay in PBMCs; type: cell-based, human; conditions: Homo sapiens, PBMC; for IC20: incubation for 48 h, read-out: IC20 PBMCs (inhibitory concentration at 20% growth)
Experimental: PBMCs were isolated from blood samples using the Ficoll-Hypaque technique. Initially, 10–20 mL of blood was collected in a heparin tube at a ratio of 1:500 from a minimum of three healthy volunteers. Subsequently, the blood samples were diluted with Phosphate buffer saline (PBS), pH 7.4, at a ratio of 1:1 to reduce viscosity. Histopaque-1077 (Sigma-Aldrich, MA, USA) was then underlaid the diluted sample and centrifuged at 400×g for 30 min. The resulting PBMCs were collected, washed with PBS, pH 7.4, and prepared for further experiments.
as §1, §2, §3

RAW264.7 cells = assay: Cytotoxicity (IC20, cell viability) in RAW264.7 cells; type: cell-based; conditions: Mus musculus, read-out: IC20 RAW264.7 (inhibitory concentration at 20% growth)
Experimental: MTT (3-(4,5-dimethylthiazol-2-yl)-2,5-diphenyltetrazolium bromide) assay was used to investigate the cytotoxicity of the test samples. […] After that, 5 mg/mL of MTT dye solution (Sigma-Aldrich, MA, USA) was added and incubated for 4 h. The produced formazan crystals were dissolved in 200 μL of DMSO (Sigma-Aldrich, MA, USA); then, the optical density (OD) was measured using an ELISA plate reader ([…], Taiwan) at 578 nm with a reference wavelength of 630 nm. The percentage of surviving cells was calculated from the absorbance values of the test and control wells using the following Equation. 1 [drawing 1] […] Afterward, supernatants were collected, and the levels of TNF-α and NO were measured using the Mouse TNF alpha Uncoated ELISA Kit (InvitrogenTM, ThermoFisher Scientific, MA, USA) and the Total Nitric Oxide Assay Kit (InvitrogenTM, ThermoFisher Scientific, MA, USA), respectively, according to the manufacturer's instructions.

[2] = system: WT1 protein expression in KG-1a cells; assay: WT1 protein expression in KG-1a cells by Western blotting; type: cell-based, human; conditions: IC20 concentrations, 48 h, normalized to GAPDH
Experimental: (§4) KG-1a cells (1.5 × 10^5 cells/mL) were treated with compounds or extracts at different incubation times. Then, the cells were harvested and the whole proteins were extracted using a RIPA buffer (25 mM Tris-base, pH 7.6, 0.1% SDS, 1% Triton X-100, 150 mM NaCl, and 1 mM EDTA). The protein concentration was measured using the Folin-Lowry or Bradford assay. The whole protein lysates (30 µg/lane) were then separated through 7.5% SDS-PAGE under reducing conditions and then transferred to PVDF membranes. The membranes were blocked in 5% skim milk in PBS, pH 7.4 at RT for 2 h, then, target proteins were probed with specific primary antibodies (anti-WT1, anti-CD34, anti-GAPDH, anti-cleaved caspase-3, anti-cleaved PARP, anti-phospho-Akt, anti-phospho-c-Jun, anti-phospho-SAPK/JNK, and anti-YAP/TAZ) indicated in Table S10 which diluted at a ratio of 1:1,000 in PBS, pH 7.4 at RT for 2 h. After incubation, the membranes were rinsed 6 times with 0.1% Tween-20 (Sigma-Aldrich, MA, USA) in PBS, pH 7.4 (PBS-T), each time for 5 min. The reaction was followed by HRP-conjugated secondary antibody at 1:20,000 dilution in PBS, pH 7.4 at RT for 2 h, then, the membranes were rinsed 6 times for 5 min each with PBS-T. The proteins were shown using Immobilon Forte Western HRP substrate (Millipore, MA, USA). Finally, the protein band signal was quantified by using a scan densitometer (Bio-Rad Laboratories, CA, USA).

[3] = system: CD34 protein expression in KG-1a cells; assay: CD34 protein expression in KG-1a cells by Western blotting; type: cell-based, human; conditions: IC20 concentrations, 48 h, normalized to GAPDH
Experimental: as §4

KG-1a cells [4] = assay: Trypan blue exclusion test, cell numbers of KG-1a cells; type: cell-based, human; conditions: IC20 concentrations, 48 h
Experimental: (§5) This test was used to confirm the cytotoxicity of the test samples. The cancer cells after exposure to crude ethanolic extracts and active compounds for 48 h were harvested and washed with ice-cold PBS, pH 7.4 for 3 times. Then, the cells were resuspended with PBS, pH 7.4. The cell suspensions were diluted with PBS, pH 7.4 at the appropriate dilution before being mixed with 0.2% trypan blue solution at 1:2 dilution for cell count on a hemocytometer. From this test, the viable cells and the dead cells could also be obviously detected.
as §5, with “crude ethanolic extracts and active compounds. KG-1a” for “the test samples. The cancer”

[5] = KG-1a, 48 h, drugs, MTT, 48 h, read-out: IC50 KG-1a
[6] = KG-1a, Table S7, KG-1a, first replicate, read-out: IC50 value R1
[7] = KG-1a, Table S7, KG-1a, mean of R1-R3, read-out: IC50 value Mean
[8] = KG-1a, Table S7, KG-1a, second replicate, read-out: IC50 value R2
[9] = KG-1a, Table S7, KG-1a, third replicate, read-out: IC50 value R3
[10] = Table S8, PBMCs, first replicate, read-out: IC50 value R1
[11] = Table S8, PBMCs, mean of R1-R3, read-out: IC50 value Mean
[12] = Table S8, PBMCs, second replicate, read-out: IC50 value R2
[13] = Table S8, PBMCs, third replicate, read-out: IC50 value R3
[14] = drugs, MTT, 48 h, read-out: IC50 PBMCs
[15] = KG-1a, 48 h, active compounds and drugs, MTT, 48 h, read-out: IC50 KG-1a
[16] = active compounds and drugs, MTT, 48 h, read-out: IC50 PBMCs

SMILES	IC50 (KG-1a cells [1]; [5]) [µg/mL]	IC50 (KG-1a cells [1]; [6]) [µg/mL]	IC50 (KG-1a cells [1]; [7]) [µg/mL]	IC50 (KG-1a cells [1]; [8]) [µg/mL]	IC50 (KG-1a cells [1]; [9]) [µg/mL]	IC50 (PBMCs; [10]) [µg/mL]	IC50 (PBMCs; [11]) [µg/mL]	IC50 (PBMCs; [12]) [µg/mL]	IC50 (PBMCs; [13]) [µg/mL]	IC50 (PBMCs; [14]) [µg/mL]	IC50 (KG-1a cells [1]; [15]) [µg/mL]	Selectivity index (SI) (KG-1a cells [1]; 48 h)	IC50 (PBMCs; [16]) [µg/mL]	IC20 (PBMCs) [µg/mL]	also measured
CC(=O)[C@]1(O)Cc2c(O)c3c(c(O)c2[C@@H](O[C@H]2C[C@H](N)[C@H](O)[C@H](C)O2)C1)C(=O)c1ccccc1C3=O [Idarubicin, idarubicin, reference compound]	0.0313 ± 0.00504 (≈ 0.0629 µM)	0.0259 (≈ 0.052 µM)	0.0279 (≈ 0.0561 µM)	0.0318 (≈ 0.0639 µM)	0.026 (≈ 0.0522 µM)	> 1	> 1	> 1	> 1	> 1					
Nc1ccn([C@@H]2O[C@H](CO)[C@@H](O)[C@@H]2O)c(=O)n1 [Cytarabine, cytarabine, reference compound]		> 100	> 100	> 100	> 100	> 100	> 100	> 100	> 100		> 100	> 1	> 100		
COc1cc(/C=C/C(O)=C/C(=O)/C=C/c2ccc(O)cc2)ccc1O [Demethoxycurcumin, demethoxycurcumin]						14.2 (≈ 41.8 µM)		13.6 (≈ 40.2 µM)	13.9 (≈ 41 µM)			1.23	13.9 ± 0.28 (≈ 41 µM)	7.95 ± 0.26 (≈ 23.5 µM)	IC50 (KG-1a cells [1]; KG-1a, active compounds and drugs, MTT, 48 h, read-out: IC50 KG-1a): 11.3 ± 0.85 µg/mL (≈ 33.3 µM); IC20 (KG-1a cells [1]; KG-1a): 3.69 ± 0.53 µg/mL (≈ 10.9 µM); IC50 (KG-1a cells [1]; Table S7, KG-1a, first replicate, read-out: IC50 value R1): 10.3 µg/mL (≈ 30.5 µM); IC50 (KG-1a cells [1]; Table S7, KG-1a, second replicate, read-out: IC50 value R2): 11.6 µg/mL (≈ 34.4 µM); IC50 (KG-1a cells [1]; Table S7, KG-1a, third replicate, read-out: IC50 value R3): 11.9 µg/mL (≈ 35.1 µM); Selectivity index (SI) (KG-1a cells [1]; 48 h, listed as demethoxycurcumin): greater than 1; IC20 (RAW264.7 cells; RAW264.7, 48 h): 5.94 ± 2.02 µg/mL (≈ 17.6 µM); decrease of WT1 protein level compared to VC [2]: 33.37 ± 3.87%; decrease of CD34 protein level compared to VC [3]: 32.79 ± 1.56%
O=C(/C=C/c1ccc(O)cc1)CC(=O)/C=C/c1ccc(O)cc1 [Bisdemethoxycurcumin, bisdemethoxycurcumin]		17.1 (≈ 55.6 µM)		17.6 (≈ 57 µM)	19 (≈ 61.7 µM)	12.6 (≈ 40.7 µM)		12.2 (≈ 39.4 µM)	10.2 (≈ 33.1 µM)		17.9 ± 0.99 (≈ 58.1 µM)	0.65	11.6 ± 1.25 (≈ 37.8 µM)	6.9 ± 1.59 (≈ 22.4 µM)	IC20 (KG-1a cells [1]; KG-1a, 48 h): 7.97 ± 2.07 µg/mL (≈ 25.8 µM); IC20 (RAW264.7 cells; RAW264.7, incubation for 48 h): 2.71 ± 0.62 µg/mL (≈ 8.79 µM); decrease of total cell number compared to VC (KG-1a cells [4]): 47.21 ± 7.98%; normalized viable cell counts (KG-1a cells [4]): 962.81 ± 19.30 × 10^3 cells per 1 million total cells
COc1cccc2c1C(=O)c1c(O)c3c(c(O)c1C2=O)C[C@@](O)(C(=O)CO)C[C@@H]3O[C@H]1C[C@H](N)[C@H](O)[C@H](C)O1 [Doxorubicin, doxorubicin, reference compound]	0.652 ± 0.142 (≈ 1.2 µM)	0.807 (≈ 1.48 µM)		0.622 (≈ 1.14 µM)	0.528 (≈ 0.971 µM)	> 1	> 1	> 1	> 1	> 1		> 1.53			Selectivity index (SI) (KG-1a cells [1]; 48 h, listed as doxorubicin): greater than 1
O=P1(N(CCCl)CCCl)NCCCO1 (centres unmarked) [Cyclophosphamide, cyclophosphamide, reference compound]															IC50 (KG-1a cells [1]; KG-1a, 48 h, read-out: IC50 KG-1a): > 400 µg/mL; IC50 (KG-1a cells [1]; KG-1a, read-out: IC50 value Mean): > 400 µg/mL; IC50 (KG-1a cells [1]; KG-1a, read-out: IC50 value R1): > 400 µg/mL; IC50 (KG-1a cells [1]; KG-1a, read-out: IC50 value R2): > 400 µg/mL; IC50 (KG-1a cells [1]; KG-1a, read-out: IC50 value R3): > 400 µg/mL; IC50 (PBMCs; 48 h, read-out: IC50 PBMCs): > 400 µg/mL; IC50 (PBMCs; read-out: IC50 value Mean): > 400 µg/mL; IC50 (PBMCs; read-out: IC50 value R1): > 400 µg/mL; IC50 (PBMCs; read-out: IC50 value R2): > 400 µg/mL; IC50 (PBMCs; read-out: IC50 value R3): > 400 µg/mL
